Source: paper PMC10535199, “A Combined Experimental and Computational Study of Novel Benzotriazinone Carboxamides as Alpha-Glucosidase Inhibitors” (Molecules, 2023)

Experiments:
Alpha-glucosidase = molecular target: T1, Alpha-glucosidase (Saccharomyces cerevisiae, UniProt P53341); test: biochemical; conditions: for inhibition at 500 µM: pH 6.8, read-out: Inhibition (%) at 0.5 mM; for IC50: pH 6.8, 30 min incubation
T1 construct: purchased 5003-1KU Type I
Experimental: The alpha-glucosidase inhibitory assay was performed by adopting the method of Pierre et al., with minor modifications. Alpha-glucosidase (Cat No. 5003-1KU Type I) belonging to Saccharomyces cerevisiae was selected for this protocol because its structure and function were similar to yeast and mammalian enzymes. In test tubes, 10 μL of test compound (0.5 mM), 70 μL of saline phosphate buffer (50 mM) to adjust pH at 6.8, and 10 μL of α-glucosidase enzyme (0.0234 units) were added to prepare […] assay mixture. A quantity of 10 μL p-nitrophenyl-α-D-glucopyranoside (0.5 mM, N1377 from Sigma, Burlington, MA, USA) was added to initiate the reaction and tubes were incubated for 30 min. […] Free substrate change in absorbance was monitored at 400 nm. The alpha-glucosidase inhibitory activity was calculated as percentage inhibition by using formula:% Inhibition = [(Abs. of control − Abs. of test)/Abs. of control] × 100
IC50 values were determined using EZ-Fit enzyme kinetics software version 5.03 (Perrella Scientific Inc. Amherst, Amherst, MA, USA).

T1 sequence (P53341 whole entry): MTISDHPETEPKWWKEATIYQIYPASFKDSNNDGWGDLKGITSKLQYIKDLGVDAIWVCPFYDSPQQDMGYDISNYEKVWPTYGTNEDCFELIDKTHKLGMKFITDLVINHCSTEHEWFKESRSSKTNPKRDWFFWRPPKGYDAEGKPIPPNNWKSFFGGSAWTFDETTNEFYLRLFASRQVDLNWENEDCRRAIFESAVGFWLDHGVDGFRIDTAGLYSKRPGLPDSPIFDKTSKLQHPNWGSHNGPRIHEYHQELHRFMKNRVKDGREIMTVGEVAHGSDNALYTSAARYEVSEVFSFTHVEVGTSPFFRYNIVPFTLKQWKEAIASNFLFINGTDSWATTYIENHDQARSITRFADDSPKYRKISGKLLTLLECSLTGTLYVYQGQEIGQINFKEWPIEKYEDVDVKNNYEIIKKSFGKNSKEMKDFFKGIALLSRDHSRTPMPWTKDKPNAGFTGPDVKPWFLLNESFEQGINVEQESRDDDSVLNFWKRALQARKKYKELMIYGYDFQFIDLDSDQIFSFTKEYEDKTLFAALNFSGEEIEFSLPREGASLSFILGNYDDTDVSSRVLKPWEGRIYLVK

## CCCCCCCNC(=O)CCCn1nnc2ccccc2c1=O [14e, N-Heptyl-4-(4-oxobenzo[1,2,3]triazin-3(4H)-yl)butanamide]
other
  melting point: 100 to 101 °C
Alpha-glucosidase
  inhibition at 500 µM: 40.23 ± 0.21%

## O=C(CCCn1nnc2ccccc2c1=O)Nc1cccc(Cl)c1 [14j, N-(3-Chlorophenyl)-4-(4-oxobenzo[1,2,3]triazin-3(4H)-yl)butanamide]
other
  melting point: 209 to 210 °C
Alpha-glucosidase
  IC50: 52.01 ± 0.07 µM
  inhibition at 500 µM: 89.35 ± 0.21%

## O=C(CCCn1nnc2ccccc2c1=O)Nc1ccc(Br)cc1 [14h, N-(4-Bromophenyl)-4-(4-oxobenzo[1,2,3]triazin-3(4H)-yl)butanamide]
other
  melting point: 115 to 116 °C
Alpha-glucosidase
  IC50: 238.15 ± 0.15 µM
  inhibition at 500 µM: 74.25 ± 0.27%

## O=C(CCCn1nnc2ccccc2c1=O)Nc1ccc(Cl)cc1 [14i, N-(4-Chlorophenyl)-4-(4-oxobenzo[1,2,3]triazin-3(4H)-yl)butanamide]
other
  melting point: 144 to 145 °C
Alpha-glucosidase
  IC50: 163.29 ± 0.13 µM
  inhibition at 500 µM: 82.77 ± 0.2%

## CCCCCNC(=O)CCCn1nnc2ccccc2c1=O [14c, N-pentyl-4-(4-Oxobenzo[1,2,3]triazin-3(4H)-yl)butanamide]
other
  melting point: 106 to 107 °C
Alpha-glucosidase
  inhibition at 500 µM: 42.34 ± 0.25%

## Cc1cc(C)cc(NC(=O)CCCn2nnc3ccccc3c2=O)c1 [14g, N-(3,5-Dimethylphenyl)-4-(4-oxobenzo[1,2,3]triazin-3(4H)-yl)butanamide]
other
  melting point: 110 to 111 °C
Alpha-glucosidase
  IC50: 196.52 ± 0.08 µM
  inhibition at 500 µM: 78.32 ± 0.18%

## CCCNC(=O)CCCn1nnc2ccccc2c1=O [14a, N-propyl-4-(4-Oxobenzo[1,2,3]triazin-3(4H)-yl)butanamide]
other
  melting point: 127 to 128 °C
Alpha-glucosidase
  inhibition at 500 µM: 39.13 ± 0.19%

## CCCCNC(=O)CCCn1nnc2ccccc2c1=O [14b, N-Butyl-4-(4-oxobenzo[1,2,3]triazin-3(4H)-yl)butanamide]
other
  melting point: 123 to 124 °C
Alpha-glucosidase
  IC50: 243.41 ± 0.18 µM
  inhibition at 500 µM: 67.53 ± 0.14%

## Cc1cccc(NC(=O)CCCn2nnc3ccccc3c2=O)c1 [14l, N-(3-methylphenyl)-4-(4-Oxobenzo[1,2,3]triazin-3(4H)-yl)butanamide]
other
  melting point: 105 to 106 °C
Alpha-glucosidase
  IC50: 32.14 ± 0.11 µM
  inhibition at 500 µM: 92.63 ± 0.12%

## CCCCCCNC(=O)CCCn1nnc2ccccc2c1=O [14d, N-Hexyl-4-(4-oxobenzo[1,2,3]triazin-3(4H)-yl)butanamide]
other
  melting point: 102 to 103 °C
Alpha-glucosidase
  IC50: 335.04 ± 0.07 µM
  inhibition at 500 µM: 66.2 ± 0.11%

## COc1ccccc1NC(=O)CCCn1nnc2ccccc2c1=O [14m, N-(2-Methoxyphenyl)-4-(4-oxobenzo[1,2,3]triazin-3(4H)-yl)butanamide]
other
  melting point: 139 to 140 °C
Alpha-glucosidase
  IC50: 121.3 ± 0.15 µM
  inhibition at 500 µM: 84.31 ± 0.18%

## CCCCCCCCNC(=O)CCCn1nnc2ccccc2c1=O [14f, N-Octyl-4-(4-oxobenzo[1,2,3]triazin-3(4H)-yl)butanamide]
other
  melting point: 95 to 96 °C
Alpha-glucosidase
  inhibition at 500 µM: 30.57 ± 0.16%

## COc1ccc(NC(=O)CCCn2nnc3ccccc3c2=O)cc1 [14n, N-(4-Methoxyphenyl)-4-(4-oxobenzo[1,2,3]triazin-3(4H)-yl)butanamide]
other
  melting point: 147 to 148 °C
Alpha-glucosidase
  IC50: 75.37 ± 0.14 µM
  inhibition at 500 µM: 87.46 ± 0.15%

## Cc1ccc(NC(=O)CCCn2nnc3ccccc3c2=O)cc1 [14k, N-(4-methylphenyl)-4-(4-Oxobenzo[1,2,3]triazin-3(4H)-yl)butanamide]
other
  melting point: 175 to 176 °C
Alpha-glucosidase
  IC50: 27.13 ± 0.12 µM
  inhibition at 500 µM: 94.18 ± 0.23%
